Measured values taken from paper PMC10604187 (Antioxidants, 2023).
Read-outs that look alike come from different tables or passages of the source.

How the values were obtained:
[1] = system: freshly-cut apple slices; assay: Anti-browning assay of freshly-cut apple slices; design: species or system Malus pumila Miller; settings: for inhibition at 5000 µM: Malus pumila, read-out: inhibition of apple slice browning (relative browning intensity) compared to control; for L* value change (ΔL*): 48 h storage time point
Procedure: Apples (Malus pumila Miller) of similar maturity were purchased from a local market (Emart24®, Busan, Republic of Korea). The apples were cut into small equal-sized pieces (W × D × H, 1.5 ± 0.1 cm × 1.5 ± 0.1 cm × 0.3 ± 0.05 cm). Three apple slices were placed in glass dishes with a diameter of 5 cm.
(§1) The apple slice dishes were placed in an incubator maintained at 20 °C. Kojic acid and PTU were used as positive controls. All samples, except PTU, were prepared as aqueous solutions. PTU test samples were prepared in a DMSO solution as it is only soluble in water at very low concentrations.
At five time points (0, 12, 24, 36, and 48 h), apple slices were photographed using a camera (iPhone 11), and browning colors (a*, b*, and L*) were measured using a CR-10 spectrophotometer (Konica Minolta Sensing, Inc., Osaka, Japan). In the spectrophotometer, the colors were described by a* (redness and greenness), b* (yellowness and blueness), and L* (lightness) values according to the Commission Internationale de l’Eclairage (CIE) color system. The overall color difference (ΔE) was calculated using the following formula: (ΔE)^2 = (a − ainitial)^2 + (b − binitial)^2 + (L − Linitial)^2. In addition, based on the photographs, the relative browning intensities were calculated using CS analyzer 3.2 image analysis software.

[2] = system: HEK-293 cells; assay: Cell viability (EZ-Cytox) assay in HEK-293 cells; assay type: cell-based, human; settings: 40 μM (maximum concentration), 24 h
Procedure: HEK-293 cells were obtained from American Type Culture Collection (ATCC; Manassas, VA, USA). Trypsin, streptomycin, fetal bovine serum (FBS), phosphate-buffered saline (PBS), penicillin, and Dulbecco’s modified Eagle’s medium (DMEM) for HEK-293 cell culture were purchased from Thermo Fisher Scientific (Carlsbad, CA, USA). HEK-293 cells were cultured in a DMEM solution containing penicillin (100 IU/mL), 10% heat-inactivated FBS, and streptomycin (100 µg/mL) in a 5% CO2 environment at 37 °C.
Cytotoxicity assays were performed using an EZ-Cytox assay (EZ-1000, DoGenBio, Seoul, Republic of Korea) in HEK-293 cells. Briefly, 96-well plates containing HEK-293 cells at a density of 1 × 10^4 cells per well were cultured in a 5% CO2 environment at 37 °C for 24 h. After 20 h, cells were treated with 2-MBI analogs 1−10 at 4 different concentrations (final concentration: 0, 2.5, 10, and 40 µM) and incubated for 24 h at 37 °C in a 5% CO2 environment. Then, 10 µL aliquot of the EZ-Cytox solution was added to each well. After 2 h incubation at 37 °C, the absorbance of each well was measured using a microplate reader (VersaMax®; Molecular Devices) at 450 nm.

[3] = Water solubility (statement); assay type: physicochemical
Procedure: as §1

[4] = biological target: T1, mushroom tyrosinase (Agaricus bisporus, UniProt C7FF04); assay: Mushroom tyrosinase inhibitory assay, diphenolase activity (L-dopa substrate); assay type: biochemical; settings: vs kojic acid
Procedure: The effect of the analogs on enzyme inhibition was investigated in the presence of L-dopa and L-tyrosine. […] After incubating the assay mixture for 0.5 h at 37 °C, the amounts of dopachrome produced during the incubation time were evaluated by measuring the absorbances of each well at 475 nm using a VersaMax^TM microplate reader (Molecular Devices, Sunnyvale, CA, USA).
Target sequence in this assay (C7FF04 2-392): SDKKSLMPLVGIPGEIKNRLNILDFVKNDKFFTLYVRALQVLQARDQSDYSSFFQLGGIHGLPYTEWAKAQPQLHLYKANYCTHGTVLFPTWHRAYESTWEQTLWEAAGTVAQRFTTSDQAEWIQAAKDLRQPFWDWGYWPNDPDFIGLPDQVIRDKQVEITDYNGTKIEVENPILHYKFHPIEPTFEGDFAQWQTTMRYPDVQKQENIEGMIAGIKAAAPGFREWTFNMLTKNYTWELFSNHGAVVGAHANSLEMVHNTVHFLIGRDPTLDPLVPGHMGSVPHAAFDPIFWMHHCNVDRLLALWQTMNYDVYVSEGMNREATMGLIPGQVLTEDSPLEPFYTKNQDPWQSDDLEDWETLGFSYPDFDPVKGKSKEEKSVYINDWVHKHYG

[5] = biological target: T1, mushroom tyrosinase; assay: biochemical; settings: for mode of tyrosinase inhibition: Lineweaver–Burk plots, L-dopa
Procedure: Briefly, a dimethyl sulfoxide (DMSO) solution (10 µL) containing test analogs (final concentrations: 0, 5, 10, and 20 nM) was added to the wells of a 96-well plate containing mushroom tyrosinase (20 µL, 200 units/mL) and an aqueous solution (170 µL) consisting of L-dopa (final concentrations: 0.125, 0.25, 0.5, 1, 2, 4, and 8 mM) and phosphate buffer (final concentration: 14.7 mM, pH 6.5). The increase in the absorbance at 475 nm (ΔOD475/min) was measured using a VersaMax^TM microplate reader to determine the initial rate of dopachrome generation. The maximal velocity (Vmax) was determined from the y-axis intercept values of the Lineweaver–Burk plots obtained at seven different L-dopa concentrations. Dixon plots were obtained from Lineweaver–Burk plots for inhibitors by plotting the reciprocal of the reaction velocity against the inhibitor concentration.
Target sequence in this assay (C7FF04 1-392): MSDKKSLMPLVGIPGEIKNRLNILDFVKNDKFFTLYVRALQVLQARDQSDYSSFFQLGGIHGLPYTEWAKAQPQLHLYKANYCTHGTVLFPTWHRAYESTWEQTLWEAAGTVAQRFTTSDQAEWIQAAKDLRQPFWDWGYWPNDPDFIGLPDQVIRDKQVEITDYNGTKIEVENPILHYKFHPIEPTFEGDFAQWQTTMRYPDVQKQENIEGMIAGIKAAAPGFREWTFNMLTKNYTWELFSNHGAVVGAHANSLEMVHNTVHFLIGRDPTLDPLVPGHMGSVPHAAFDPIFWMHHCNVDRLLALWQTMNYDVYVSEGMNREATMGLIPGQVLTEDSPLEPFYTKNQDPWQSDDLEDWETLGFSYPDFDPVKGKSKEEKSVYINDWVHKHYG

[6] = In vitro ROS scavenging assay (SIN-1, DCFH-DA); settings: 40 μM, ROS enhanced by SIN-1
Procedure: At emission and excitation wavelengths of 535 and 485 nm, fluorescence intensity was measured using a fluorescence microplate reader (Berthold Technologies GmbH & Co., Wien, Austria).
Hydrolyzed DCFH reacts with ROS to produce the fluorescent substance dichlorofluorescein (DCF). The ROS-scavenging effects of the analogs were determined by measuring the emitted fluorescence. The in vitro ROS-scavenging effects were measured using 40 μM test samples.

[7] = ABTS radical cation scavenging assay; settings: 100 μM test samples
Procedure: The ABTS radical cation-scavenging activities of analogs 1–10 were investigated according to a previously described protocol with minor modifications. Briefly, to prepare a test solution for the ABTS radical cation scavenging activity, potassium persulfate aqueous solution (10 mL, 2.45 mM) was mixed with ABTS aqueous solution (10 mL, 7 mM) and left for 12 h at room temperature in the dark until the absorbance remained constant. Prior to the ABTS radical cation scavenging assay experiments, the absorbance at 734 nm was adjusted to 0.70 ± 0.02 by diluting the ABTS radical cation solution with water. An aliquot (10 µL) of 1–10 or Trolox (the positive reference material) at 100 µM was mixed with the ABTS radical cation solution (90 µL) in each well of a 96-well plate and incubated for 10 min at ambient temperature in the dark. The optical density of each well was measured at 734 nm using a VersaMax® microplate reader. All experiments were performed independently 3 times.
The antioxidant potential of 1–10 was investigated using the ABTS radical cation scavenging technique. ABTS can be easily oxidized to the corresponding radical cation by oxidants such as potassium persulfate. Because of the correlation between melanogenesis and antioxidant activity, the ABTS radical-scavenging ability of 1–10 was examined. […]

[8] = DPPH radical scavenging assay; settings: 1 mM test samples, 0.5 h
Procedure: The DPPH radical scavenging activities of analogs 1–10 were evaluated according to a previously described protocol to examine the antioxidant effects of analogs 1–10. Briefly, an aliquot (180 µL) of DPPH methanol solution (0.2 mM) was mixed with a 2-MBI analogs’ DMSO (dimethyl sulfoxide) solution in each well of a 96-well plate, and the mixture was left in the dark for 0.5 h at room temperature. The optical density of each well was analyzed using a microplate reader (VersaMax®, Molecular Devices, Sunnyvale, CA, USA).
As the antioxidant ability of a compound may be involved in the inhibition of melanogenesis, the antioxidant effects of analogs 1–10 on DPPH radicals were explored. Vitamin C (L-ascorbic acid), a strong antioxidant, was used as the positive control. After mixing the test sample and DPPH solutions and standing at room temperature in the dark for 0.5 h, the absorbances of the mixed samples were measured at 517 nm using 1 mM test samples.

[9] = 5 mM spray (analogs as sodium salts)
[10] = 5 mM spray every 12 h (analogs as sodium salts), 36 h storage, 20 °C

Sc1nc2ccccc2[nH]1 [analog 1, 1H-Benzo[d]imidazole-2-thiol]
inhibition at 5000 µM [1]: 28.5 to 36.1%

Cc1cc2nc(S)[nH]c2cc1C [analog 3, 5,6-Dimethyl-1H-benzo[d]imidazole-2-thiol]
cytotoxicity in HEK-293 cells [2]: weakly

NC(=S)Nc1ccccc1 [PTU, phenylthiourea, reference compound]
water solubility [3]: poorly soluble in water | L* value change (ΔL*) [1, 9]: 3.4 | inhibition at 5000 µM [1]: 21.9%

O=C(c1ccccc1)c1ccc2[nH]c(S)nc2c1 [analog 6, (2-Mercapto-1H-benzo[d]imidazol-5-yl)(phenyl)methanone]
cytotoxicity in HEK-293 cells [2]: moderately cytotoxic | fold more potent than kojic acid, diphenolase activity [4]: 970 fold | Ki [5]: 8.6 nM | mode of tyrosinase inhibition [5]: competitive

Cc1c(C)c2c(c(C)c1O)CCC(C)(C(=O)O)O2 (stereo not drawn) [Trolox, reference compound]
in vitro ROS scavenging effect [6]: greatly reduced | ABTS radical cation scavenging activity, inhibition [7]: 96%

Cc1cccc2[nH]c(S)nc12 [analog 9, 4-Methyl-1H-benzo[d]imidazole-2-thiol]
ABTS radical cation scavenging activity, inhibition [7]: 90% | inhibition at 5000 µM [1, 10]: 28.5 to 36.1%

O=[N+]([O-])c1ccc2[nH]c(S)nc2c1 [analog 7, 5-Nitro-1H-benzo[d]imidazole-2-thiol]
L* value change (ΔL*) [1, 9]: 1.3

Sc1nc2cc(Cl)ccc2[nH]1 [analog 4, 5-Chloro-1H-benzo[d]imidazole-2-thiol]
in vitro ROS scavenging effect [6]: most potently reduced

O=C1O[C@H]([C@@H](O)CO)C(O)=C1O [Vitamin C, L-ascorbic acid]
DPPH radical scavenging activity, inhibition [8]: 98%

COc1ccc2[nH]c(S)nc2c1 [analog 5, 5-Methoxy-1H-benzo[d]imidazole-2-thiol]
L* value change (ΔL*) [1, 9]: 8.2

O=c1cc(CO)occ1O [kojic acid, reference compound]
L* value change (ΔL*) [1, 9]: 6.4 | inhibition at 5000 µM [1, 10]: 7%

N#Cc1ccc2[nH]c(S)nc2c1 [analog 10, 2-Mercapto-1H-benzo[d]imidazole-5-carbonitrile]
Ki [5]: 14.8 nM | mode of tyrosinase inhibition [5]: competitive | L* value change (ΔL*) [1, 9]: 3.1 | overall color difference (ΔE) of apple slices ([1]; 5 mM spray (analogs as sodium salts), over 48 h storage): lowest increase in ΔE | inhibition at 5000 µM [1, 10]: 28.5 to 36.1%
